Experimental data reported in article PMC7719179, “Small molecule inhibition of Dynamin-dependent endocytosis targets multiple niche signals and impairs leukemia stem cells” (Nature Communications, 2020).
“And” between values parts separate entries of the source, which are not always exact repeats. Equal entries are not always repeated.

Tested on: Ba/F3-IL7R^Stat5-CA cells
Assay: pStat5 and proliferation of Ba/F3-IL7R^Stat5-CA cells with IL-7 or doxycycline
Assay type: cell-based, murine
Details: relative to data from day 0, reported as 1, groups +IL-7 -DOX or -IL-7 +DOX
Experimental: Ba/F3 cells (kindly provided by a person from The Walter and Eliza Hall Institute of Medical Research) were infected with pMIG-R1/Il7r retroviral supernatants produced in 293T cells, and transduced cells were sorted with a BD Influx (BD Australia) and selected by culture in medium supplemented with 5 ng/mL rmIL-7 (#217-17, Pepro Tech, Rocky Hill NJ, USA) for 7 days. Ba/F3 cells stably expressing Il7r (Ba/F3-IL7R) were infected with TxTCPVIR-Stat5-CA retroviral supernatants produced in 293T. Cell sorting was performed with a BD Influx and transduced cells were treated with doxycycline for 48 h to induce the expression of the Stat5-CA-T2A-mCherry fusion protein. […]
(red) assessed by flow cytometry (top) and Western blots (bottom). MFI ± SD of n=2 technical replicates, performed in 2 independent experiments (***P<0.001 compared to unstimulated cells ; white bar). For Western blots, Actin was used as a loading control. f, Proliferation of BaF3-IL7R Stat5-CA cells in absence (+IL-7 –DOX; grey) or presence (-IL-7 +DOX; red) of doxycycline. Fold expansion was calculated from the number of cells initially put into culture at day 0. […]

## C[C@H]1c2cccc(O)c2C(=O)C2=C(O)[C@]3(O)C(=O)C(C(N)=O)=C(O)[C@@H](N(C)C)[C@@H]3[C@@H](O)[C@@H]21 [DOX]
24 h
  Fold expansion: 0.89 and 0.85 and 0.86 and 0.90 and 0.74 and 0.77
48 h
  Fold expansion: 1.39 and 1.43 and 1.24 and 1.40 and 1.29 and 1.28
72 h
  Fold expansion: 2.22 and 2.26 and 3.46 and 3.54 and 3.68 and 3.14
96 h
  Fold expansion: 3.24 and 3.39 and 3.99 and 3.41 and 3.51 and 3.96
120 h
  Fold expansion: 10.84 and 12.62 and 8.80 and 9.76 and 7.34 and 8.20

## IL-7
24 h
  Fold expansion: 0.74 and 0.75 and 0.79 and 0.97 and 0.91 and 0.98
72 h
  Fold expansion: 2.37 and 2.58 and 4.20 and 3.96 and 3.95 and 3.51
120 h
  Fold expansion: 9.32 and 11.24 and 15.76 and 15.48 and 14.68 and 15.08
